Test results as given in publication PMC4554599 (Bipolar disorders, 2014).

Assays:
[1] = biological target: T1, acyl-CoA synthetase-4 (Acsl4) (Rattus norvegicus, UniProt O35547); assay type: biochemical
[2] = biological target: T1, acyl-CoA synthetase-4 (Acsl4); assay: Michaelis-Menten kinetics, […]AA to AA-CoA conversion; assay type: biochemical

T1 sequence (O35547 whole entry): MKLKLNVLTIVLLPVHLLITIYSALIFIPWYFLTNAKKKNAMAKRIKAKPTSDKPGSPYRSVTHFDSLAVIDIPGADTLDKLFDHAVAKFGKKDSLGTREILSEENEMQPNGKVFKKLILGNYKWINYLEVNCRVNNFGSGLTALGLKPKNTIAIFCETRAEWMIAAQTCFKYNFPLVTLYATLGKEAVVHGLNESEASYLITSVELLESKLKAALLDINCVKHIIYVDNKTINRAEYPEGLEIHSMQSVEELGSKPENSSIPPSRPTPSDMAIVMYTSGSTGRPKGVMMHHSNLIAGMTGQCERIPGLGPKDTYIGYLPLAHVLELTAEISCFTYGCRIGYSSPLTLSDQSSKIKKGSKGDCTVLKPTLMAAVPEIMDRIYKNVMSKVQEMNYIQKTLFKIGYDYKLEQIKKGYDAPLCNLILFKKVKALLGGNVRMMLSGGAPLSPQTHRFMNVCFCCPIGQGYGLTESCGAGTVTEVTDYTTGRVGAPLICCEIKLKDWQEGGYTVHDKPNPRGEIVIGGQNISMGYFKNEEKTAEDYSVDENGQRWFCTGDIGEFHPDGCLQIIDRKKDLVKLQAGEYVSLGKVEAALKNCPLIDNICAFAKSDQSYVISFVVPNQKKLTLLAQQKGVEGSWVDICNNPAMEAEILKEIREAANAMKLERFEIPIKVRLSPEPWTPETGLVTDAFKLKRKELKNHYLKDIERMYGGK

## CCC(C)C(CC)C(N)=O (racemic) [VCD, 2-ethyl-3-methyl pentanamide]
[1]
  Ki: 6.38 ± 0.63 mM

## CCCCC/C=C\C/C=C\C/C=C\C/C=C\CCCC(=O)O [AA, arachidonic acid]
[2]
  Km: 4.63 ± 0.67 µM
